Results: ChEMBL document CHEMBL3397014, “The short way to chiral compounds with hexahydrofluoreno[9,1-bc]furan framework: synthesis and cytotoxic activity” (2015)

Experiments:
[1] = Cytotoxic activity against human CEM13 cells assessed as reduction in cell viability after 72 hrs by MTT assay; type: functional
[2] = tested on: MT4; assay: Induction of apoptosis in human MT4 cells at 0.9 uM after 72 hrs by propidium iodide staining based FACS flow cytometry (reference value: 5.5%); type: functional
[3] = tested on: MT4; assay: Induction of apoptosis in human MT4 cells at 0.9 uM after 48 hrs by propidium iodide staining based FACS flow cytometry (reference value: 3.5%); type: functional
[4] = tested on: MT4; assay: Cytotoxic activity against human MT4 cells assessed as reduction in cell viability after 72 hrs by MTT assay; type: functional
[5] = Cytotoxic activity against human U937 cells assessed as reduction in cell viability after 72 hrs by MTT assay; type: functional, U-937
[6] = tested on: MT4; assay: Induction of apoptosis in human MT4 cells at 0.9 uM after 24 hrs by propidium iodide staining based FACS flow cytometry (reference value: 2.3%); type: functional

Row | SMILES | CTD50 [1] | Activity [2] | Activity [3] | CTD50 [4] | CTD50 [5] | Activity [6]
1 | COc1cc2c(cc1O)[C@@H]1OC[C@@H]3CC(C(C)C)=CC2[C@@]31C (some centres undefined) | 93.3 µM | 27.7% | 16.3% | 0.93 µM | 50 µM | 12.8%
2 | COc1cc2c(cc1O)C1C=C(C(C)C)C[C@H]3CO[C@@H]2[C@@]13C (some centres undefined) | 136.7 µM |  |  | 150 µM | 210 µM | 
3 | COc1cc2c(c(OC)c1O)C1C=C(C(C)C)C[C@H]3CO[C@@H]2[C@@]13C (some centres undefined) | 157.6 µM |  |  | 224.2 µM | 136.4 µM | 
4 | COc1cc2c(c(OC)c1OC)C1C=C(C(C)C)C[C@H]3CO[C@@H]2[C@@]13C (some centres undefined) | 49.4 µM |  |  | 200.6 µM | 66.9 µM | 
5 | COc1cc(OC)c2c(c1OC)C1C=C(C(C)C)C[C@H]3CO[C@@H]2[C@@]13C (some centres undefined) | 81.4 µM |  |  | >250 µM | 116.3 µM | 
6 | CC(C)C1=CC2Oc3cc(O)ccc3[C@@H]3OC[C@H](C1)[C@]23C (some centres undefined) | 111.9 µM |  |  | 150.3 µM | 164.3 µM | 
7 | COc1cccc2c1C(=O)c1c(O)c3c(c(O)c1C2=O)C[C@@](O)(C(=O)CO)C[C@@H]3O[C@H]1C[C@H](N)[C@H](O)[C@H](C)O1 [DOXORUBICIN] | 3.44 µM |  |  | 2.76 µM | 0.17 µM | 
